The source of these data is patent publication US11260050B2, “Combination of cotinine plus antioxidant for treatment-resistant depression and correction of astrocytes functional deficit induced by depression and other neuropathological” (UNIVERSIDAD SAN SEBASTIAN, priority 2017, dated 2022).

The test system of assay [1] is restrained mice. The assay can be described thus: Open field test, oral co-treatment during restraint stress (Example 3). As to conditions: oral cotinine 5 mg/kg, KO 143 mg/kg or both, 25 min. In kind it is in vivo, C57BL/6J mice. Here is the method: Mice after acclimatization and one week of handling were randomly divided into five groups (n=8/condition) and orally treated as follow: 1) control non-restrained mice treated with vehicle (PBS, pH 7.4); 2) restrained mice treated with vehicle; 3), restrained mice treated with a cotinine solution (5 mg/kg in PBS, pH 7.4) via gavage; 4) restrained mice treated with KO (143 mg/kg); 5) restrained mice treated with cotinine plus KO solution. Mice were started with treatments, the first day of restraint and continuously until euthanasia. Treatments were administered at the same time of the day, 30 min before restraint. After 21 days into treatments, mice were behaviorally tested (FIG. 17).
Restraint stress (RS) was used as a model of chronic stress-induced depressive-like behavior and cognitive impairment. We used this task because is a reliable method that mimics the effects of chronic stress without causing physical pain or unnecessary discomfort to the mice. Mice were gently introduced into a 50-ml conical transparent plastic tubes (Corning Inc.). […]
The open field (OF) test was conducted as previously described with minor modifications to identify changes in locomotor activity in response to stress and/or drug treatments. […] Total distance traveled, and time spent in the center zone were measured under moderate lighting using the video tracking software (ANY-Maze, Stoelting Co.).

The subject of assay [2] is mice subjected to fear conditioning. The assay can be described thus: Porsolt test after fear conditioning (Example 1, Experiment 3). The format is in vivo, C57BL/6 mice. As to conditions: FC mice, IN post-treatment; cotinine p<0.01, combination p<0.05. Here is the method: Mice were treated via IN 2 hours after fear conditioning and continuously until euthanasia.
Mice (n=5-6/condition) received daily treatments with 1. PBS (phosphate buffer saline, pH 7.4) via intranasal (2×12 μl/nostril), 2. Cotinine dissolved in PBS via intranasal (Cot IN, 10 mg/ml, 2×12 μl/nostril); 3. Cotinine+krill oil both dissolved in PBS via intranasal (Cot IN, 10 mg/ml+KO, 48 mg/ml, 2×12 μl/nostril).
Contextual FC was performed as described. The conditioning chamber used is surrounded by a sound-attenuating box with a camera connected to freeze frame software (MED Associates Inc.), also equipped to provide a background white noise (72 dB). The conditioning chamber (33 cm×20 cm×22 cm) contains in one side a speaker and in the opposite slide has a 24V light. The chamber has a 36-bar insulated shock grid floor. […] Freezing behavior that is defined as the absence of all movement except the one needed for breathing was assessed using the FreezeView Software (MED Associates Inc.).
This test is used to measure the antidepressant effects of drugs, and consists in placing each mouse in a transparent cylinder filled with water at room temperature (RT). […] The immobility time will be recorded during a 15-min and a next day 5-min trial. The time spent by each mouse immobile will be recorded.

Assay [3] has as its system restrained mice. The assay can be described thus: Open field test after chronic restraint stress (Example 2). The format is in vivo, C57BL/6 male mice. The conditions noted are these: IN cotinine 24 μl of 10 mg/ml daily, RS+PBS 61±19 m. Here is the method:
Mice between 2-3 months of age after one week of acclimatization were randomly divided into two groups. Stressed mice were subjected to restraint stress. Control (non-restrained) mice were allowed to move freely during this period. After the stress exposure period, mice were divided into three experimental groups: 1) Non-restrained mice treated with vehicle (PBS, pH 7.4) serving as unstressed controls (n=8); 2) Restrained mice (RS) treated with vehicle (n=8); 3), RS mice treated with 24 μl of a cotinine solution (10 mg/ml in PBS, pH 7.4) via intranasal route of administration (n=6). Treatments were administered daily until euthanasia. After two weeks of treatments mice were behaviorally tested and euthanized (FIG. 10) Intranasal delivery was performed as previously described (Hanson and Frey, 2007). Mice at 2-3 months of age were hand-restrained, positioned in a supine position, and administered two 12 μl drops of cotinine solution (10 mg/ml in PBS), or PBS alone, into both nares. […] Mice were individually placed in an uncovered square arena (40 cm×40 cm×35 cm), allowed to freely explore for 30 minutes (min) while monitored with a video tracking software (ANY-Maze®, Stoelting Co., Illinois, USA) under moderate lighting. Several parameters including total distance traveled, speed, and time spent in the center and peripheral zones (20 cm×20 cm) were measured to assess locomotor activity.

`CN1C(=O)CC[C@H]1c1cccnc1` [Cotinine, (5S)-1-methyl-5-(3-pyridyl) pyrrolidin-2-one]: the “locomotor activity in the open field (distance traveled, speed)” value with restrained mice [1] is given as “no significant changes in locomotor activity”. The “depressive-like behavior (freezing) in the Porsolt test” value in assay [2] was “significant decrease in depressive-like behavior”. In the assay on restrained mice [3], the “distance traveled in the OF test” value turned out to be 49±13 m.
